Assays:
Assay in all cases: relative viability (nuclei count vs DMSO), 5 days (fraction); higher = more cells survive
BI-2536 + Pemetrexed = compound: CC[C@@H]1C(=O)N(C)c2cnc(Nc3ccc(C(=O)NC4CCN(C)CC4)cc3OC)nc2N1C1CCCC1 [BI-2536] + Nc1nc2[nH]cc(CCc3ccc(C(=O)N[C@@H](CCC(=O)O)C(=O)O)cc3)c2c(=O)[nH]1 [Pemetrexed] (partner 0.2 µM)
In short: (§1)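 After 5 days of treatment, lung cancer cells in 1536-well plates were fixed and stained in a single step (final 0.05% Triton X-100, 1% formaldehyde, 1 ug/ml Hoechst) and their nuclei counted on 4× images. Treatment had been applied by pin tool the day after seeding as one drug alone or as a fixed anchor-drug dose with five library-drug doses (not always all listed) in √10 steps. Relative viability is the nuclei count of treated wells divided by that of vehicle wells, and values are medians of duplicate plates.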

BI-2536 + Tozasertib = compound: CC[C@@H]1C(=O)N(C)c2cnc(Nc3ccc(C(=O)NC4CCN(C)CC4)cc3OC)nc2N1C1CCCC1 [BI-2536] + Cc1cc(Nc2cc(N3CCN(C)CC3)nc(Sc3ccc(NC(=O)C4CC4)cc3)n2)n[nH]1 [Tozasertib] (partner 0.1 µM)
In short: as §1

[1] = compound: CC1CC(=O)N(C2=CN=C(N=C2N1C3CCCC3)NC4=C(C=C(C=C4)C(=O)NC5CCN(CC5)C)OC)C [NPK76-II-72-1] + Cc1nc(Nc2ncc(C(=O)Nc3c(C)cccc3Cl)s2)cc(N2CCN(CCO)CC2)n1 [Dasatinib] (partner 0.075 µM)
In short: as §1

BI-2536 + Bortezomib = compound: CC[C@@H]1C(=O)N(C)c2cnc(Nc3ccc(C(=O)NC4CCN(C)CC4)cc3OC)nc2N1C1CCCC1 [BI-2536] + CC(C)C[C@H](NC(=O)[C@H](Cc1ccccc1)NC(=O)c1cnccn1)B(O)O [Bortezomib] (partner 0.002 µM)
In short: as §1

Cell Line | relative viability (BI-2536 + Pemetrexed; first compound 0.01 µM) | relative viability (BI-2536 + Pemetrexed; first compound 0.03162 µM) | relative viability (BI-2536 + Pemetrexed; first compound 0.1 µM) | relative viability (BI-2536 + Pemetrexed; first compound 0.3162 µM) | relative viability (BI-2536 + Pemetrexed; first compound 1 µM) | relative viability (BI-2536 + Tozasertib; first compound 0.01 µM) | relative viability (BI-2536 + Tozasertib; first compound 0.03162 µM) | relative viability (BI-2536 + Tozasertib; first compound 0.1 µM) | relative viability (BI-2536 + Tozasertib; first compound 0.3162 µM) | relative viability (BI-2536 + Tozasertib; first compound 1 µM) | relative viability ([1]; first compound 0.01 µM) | relative viability ([1]; first compound 0.03162 µM) | relative viability ([1]; first compound 0.1 µM) | relative viability ([1]; first compound 0.3162 µM) | relative viability ([1]; first compound 1 µM) | relative viability (BI-2536 + Bortezomib; first compound 0.01 µM) | relative viability (BI-2536 + Bortezomib; first compound 0.03162 µM) | relative viability (BI-2536 + Bortezomib; first compound 0.1 µM) | relative viability (BI-2536 + Bortezomib; first compound 0.3162 µM) | relative viability (BI-2536 + Bortezomib; first compound 1 µM)
NCI-H460 | 0.0637 | 0.0517 | 0.0606 | 0.0204 | 0.0163 | 0.367 | 0.477 | 0.336 | 0.0323 | 0.0403 | 0.512 | 0.543 | 0.497 | 0.458 | 0.501 | 1.21 | 0.65 | 0.265 | 0.0115 | 0.0118
NCI-H520 | 0.666 | 0.32 | 0.204 | 0.179 | 0.189 | 0.429 | 0.424 | 0.365 | 0.395 | 0.361 | 0.203 | 0.172 | 0.178 | 0.187 | 0.252 | 0.741 | 0.321 |  | 0.194 | 0.123
NCI-H596 | 0.528 | 0.491 | 0.487 | 0.277 | 0.29 | 0.913 | 1.12 | 0.769 | 0.267 | 0.247 | 0.544 | 0.668 | 0.551 | 0.591 | 0.557 | 1.09 | 1.18 | 0.759 | 0.733 | 0.328
NCI-H647 | 0.179 | 0.148 | 0.113 | 0.0907 | 0.0929 | 0.34 | 0.433 | 0.209 | 0.132 | 0.103 | 0.215 | 0.212 | 0.131 | 0.146 | 0.169 | 0.799 | 0.888 | 0.457 | 0.0877 | 0.087
NCI-H650 | 0.912 | 1.11 | 0.551 | 0.196 | 0.139 | 0.64 | 0.529 | 0.358 | 0.181 | 0.16 | 0.457 | 0.455 | 0.411 | 0.423 | 0.494 | 0.73 | 0.563 | 0.233 | 0.19 | 0.126
NCI-H661 | 0.936 | 0.61 | 0.449 | 0.293 | 0.289 | 0.367 | 0.373 | 0.384 | 0.316 | 0.31 | 0.825 | 0.914 | 0.94 | 0.729 | 1.12 | 0.959 | 0.868 | 0.727 | 0.191 | 0.257
NCI-H838 | 0.241 | 0.239 | 0.183 | 0.12 | 0.119 | 0.239 | 0.269 | 0.241 | 0.229 | 0.225 | 0.28 | 0.247 | 0.253 | 0.265 | 0.292 | 0.878 | 0.824 | 0.16 | 0.115 | 0.111
NCI-H1355 | 1.04 | 1 | 0.899 | 0.211 | 0.174 | 0.528 | 0.434 | 0.295 | 0.212 | 0.195 | 0.689 | 0.627 | 0.744 | 0.617 | 0.731 | 1.21 | 1.21 | 0.874 | 0.303 | 0.184
